The assay deals with T1, CRTH2 receptor (Homo sapiens, UniProt Q9Y5Y4).
T1 construct: expressed in transfected cells; host or cells: HEK (human embryonic kidney) cells, membrane preparation
T1 sequence (Q9Y5Y4 1-395): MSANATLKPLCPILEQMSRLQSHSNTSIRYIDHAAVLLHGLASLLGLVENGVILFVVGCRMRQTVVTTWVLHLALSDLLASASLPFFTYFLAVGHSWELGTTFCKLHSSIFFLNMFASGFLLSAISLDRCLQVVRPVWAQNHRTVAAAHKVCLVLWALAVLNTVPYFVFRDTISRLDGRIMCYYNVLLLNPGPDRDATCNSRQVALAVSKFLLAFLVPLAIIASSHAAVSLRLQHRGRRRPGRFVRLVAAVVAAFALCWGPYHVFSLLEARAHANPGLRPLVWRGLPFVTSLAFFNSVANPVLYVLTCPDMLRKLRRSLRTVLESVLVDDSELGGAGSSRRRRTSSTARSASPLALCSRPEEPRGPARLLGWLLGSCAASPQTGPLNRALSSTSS
The assay is described as follows: CRTH2 radioligand binding assay ([3H]-PGD2 displacement, SPA). As to conditions: HEK cell membranes expressing the CRTH2 receptor, 1 nM [3H]-PGD2; Ki from IC50 by Cheng-Prusoff equation. How it is done:
Compounds of the invention were tested using the following biological test method to determine their ability to displace PGD2 from the CRTH2 receptor.
CRTH2 Radioligand Binding Assay
The receptor binding assay is performed in a final volume of 200 μL binding buffer [10 mM BES (pH 7.4), 1 mM EDTA, 10 mM manganese chloride, 0.01% BSA] and 1 nM [^3H]-PGD2 (Amersham Biosciences UK Ltd). Ligands are added in assay buffer containing a constant amount of DMSO (1% by volume). Total binding is determined using 1% by volume of DMSO in assay buffer and non-specific binding is determined using 10 μM of unlabeled PGD2 (Sigma). Human embryonic kidney (HEK) cell membranes (3.5 μg) expressing the CRTH2 receptor are incubated with 1.5 mg wheatgerm agglutinin SPA beads and 1 nM [^3H]-PGD2 (Amersham Biosciences UK Ltd) and the mixture incubated for 3 hours at room temperature. Bound [^3H]-PGD2 is detected using a Microbeta TRILUX liquid scintillation counter (Perkin Elmer). Compound IC50 value is determined using a 6-point dose response curve in duplicate with a semi-log compound dilution series. IC50 calculations are performed using Excel and XLf it (Microsoft), and this value is used to determine a Ki value for the test compound using the Cheng-Prusoff equation.

In turn, `Cc1c(CC(=O)O)c2cc(F)ccc2n1Cc1ccccc1S(=O)(=O)c1ccc(F)cc1` [Example 1, {5-fluoro-1-[2-(4-fluorobenzenesulfonyl)benzyl]-2-methyl-1H-indol-3-yl}acetic acid] gave a Ki of 66 nM.

The term Ki denotes the dissociation constant of the complex between target and ligand, obtained from inhibition or displacement.

Source of the values: patent US20110060026A1, “Indoles Active on CRTH2 Receptor” (priority 2008, published 2011).
